Laboratory results published in patent US20080107603A1, “Neuroprotectant methods, compositions, and screening methods thereof” (priority 2002, published 2008).
Where two headings read alike, the source gives them in different places.

Assays:
[1] = Fowl; cited from earlier work
[2] = system: peroxynitrite; test: Intracellular peroxynitrite formation (DHR123 fluorescence); type: cell-based, Rat; settings: 25 μM Aβ25-35, 36 h; L-ergothioneine present in the media
Description: To monitor intracellular formation of peroxynitrite, the fluorescent probe DHR123 was used. DHR123 is lipophilic and readily diffuses across cell membranes. Upon oxidation of DHR to fluorescent rhodamine, one of the two covalent amino groups tautomerizes to a changed imino, effectively trapping rhodamine within cells. DHR is not oxidized by nitric oxide (NO) but peroxynitrite effectively oxidizes it. After treatment with Aβ25-35 (25 μM) for 36 h in the presence or absence of L-ergothioneine, cells (1×10^4 cells/1 ml in 4-well chamber slide) were rinsed with saline A, and 10 μM DHR in saline A containing 5% fetal bovine serum was loaded. After 20 min incubation at 37 C, cells were examined under a confocal microscope equipped with an argon laser (488 nm; 200 mW). To quntitate peroxynitrite generation in response to Aβ25-35, total peroxynitrite production (basal+incease) was divided by basal peroxynitrite generation. Changes in fluorescence intensity are expressed as a percentage of the control.

[3] = system: striatal dopamine content; test: 6-OHDA lesion rat model, striatal dopamine content; type: in vivo, Sprague-Dawley rats; settings: treatment before 6-OHDA lesioning
Description: Male Sprague-Dawley rats with starting weights 225±25 g, were housed in groups of 3 with free access to food and water, under controlled temperature (21° C.±1° C.) and a 12 hour light/dark cycle (light on 07.00 hrs). All scientific procedures were carried out with the approval of the Home Office, U.K. Rats were administered, by gavage, 70 mg/kg of ergothioneine or vehicle (sterile distilled water) daily for 4 days (n=6 per group). On the 4th day, 1 hr after L-ergothioneine or vehicle administration, rats were anaesthetized with small animal Immobilon® (0.04 ml/rat, i.m.), and 6-OHDA (5 μg dissolved in 4 μl of 0.1% ascorbic acid/saline solution) was injected onto median forebrain bundle (stereotactic co-ordinates: 2.2 mm anterior, +1.5 lateral from bregma and −7.9 ventral to dura with ear bars 5 mm below incisor bars (Datla et al. (2001) Neuroreport 12:3871, which reference is herein specifically incorporated by reference in its entirety). One week after 6-OHDA lesioning, rats were killed by cervical dislocation and the brains were dissected out immediately. A coronal section was made at the level of hypothalamus and fore brain, and hind brain parts were separated. […] Images of TH positive cells (TH+ cells) were captured by a Xillix CCD digital camera and counted automatically (Image Proplus, Datacell, U.K.). […]

[4] = Rat; cited from earlier work
[5] = Cat; cited from earlier work
[6] = Rabbit; cited from earlier work
[7] = system: PC12 cells; test: Lipid peroxidation (MDA, BIOXYTECH LPO-586); type: cell-based, Rat; settings: Aβ25-35-treated PC12 cells; pretreatment for 30 min
Description: The extent of lipid peroxidation in PC12 cells treated with Aβ25-35 was assessed using the commercially available calorimetric assay kit BIOXYTECH LPO-586 (OXIS Research, Portland, Oreg.). After exposure to 50 μM Aβ25-35 in the presence or absence of L-ergothioneine at 37° C. for 24 h, PC12 cells were harvested and homogenized in 20 mM Tris-HCl buffer (pH 7.4), containing 0.5 mM butylated hydroxytoluene to prevent sample oxidation. After centrifugation, 3.25 volumes of diluted R1 reagent (10.3 mM N-methyl-2-phenylindole in acetonitrile) was added to the supernatant, followed by gentle vortex mixing following the addition of 0.75 ml of 37% (v/v) HCl, the mixtures were incubated at 45° C. for 60 min. After cooling and centrifugation, the absorbance of the clear supernatant was read at 590 nm. The protein concentration was determined using the BCA protein assay kit.

[8] = system: PC12 cells; test: Cell death induced by the NO releasing compound SNP (MTT); type: cell-based, Rat; settings: MTT reduction assay
Description: (§1) The MTT assay is a sensitive measurement of the normal metabolic status of cells, particularly that of mitochondria, which reflects early cellular redox changes. After incubation, cells were treated with the MTT solution (final concentration, 1 mg/ml) for 2 h. The dark blue formazan crystals formed in intact cells were dissolved in DMSO, and absorbance at 570 nm was measured with a microplate reader. Results were expressed as the percentage (%) of MTT reduction, assuming that the absorbance of control cells was 100%.

[9] = system: PC12 cells; test: Cell death induced by peroxynitrite generating SIN-1 (MTT); type: cell-based, Rat; settings: MTT reduction assay
Description: as §1

## C[N+](C)(C)[C@@H](Cc1c[nH]c(=S)[nH]1)C(=O)[O-] [L-ergothioneine, 2-mercaptohistidine trimethylbetaine]
[1]
  L-Ergothioneine Concentration (mg/100 ml blood): 2-10 mg/100 ml blood
[2]
  intracellular peroxynitrite formation: significantly reduced
[3]
  loss of striatal dopamine content: markedly reduced the loss
[4]
  L-Ergothioneine Concentration (mg/100 ml blood): 1-6 mg/100 ml blood
[5]
  L-Ergothioneine Concentration (mg/100 ml blood): 0.5-2 mg/100 ml blood
[6]
  L-Ergothioneine Concentration (mg/100 ml blood): 1-10 mg/100 ml blood
[7]
  lipid peroxidation: concentration dependent inhibition
[8]
  cell death mediated by the NO donor SNP: failed to attenuate
[9]
  cytotoxicity induced by the peroxynitrite releasing compound SIN-1: selectively protected
